The source made the active and inactive calls. No cut-off for these calls is given here.
Legend:
[1] = Cytotoxicity against human CEM cells assessed as reduction in cell viability incubated for 4 to 5 days by light microscopic analysis; type: toxicity, cell-based; conditions: CEM cells (CCRF-CEM), time 4-5 day
[2] = Prodrug conversion in human CEM/0 cell extract assessed as metabolite formation by measuring half life by HPLC analysis; type: ADME; conditions: ccrf-cem
[3] = Selectivity index, ratio of CC50 for human CEM cells to EC50 for HIV-2 ROD infected in thymidine kinase-deficient human CEM cells; type: toxicity; conditions: read-out: Ratio CC50/EC50
[4] = Retention time of the compound by HPLC analysis; type: physicochemical
[5] = test system: Human immunodeficiency virus 2; assay: Antiviral activity against HIV-2 ROD infected in wild-type human CEM/0 cells assessed as inhibition of virus-induced cytopathic effect incubated for 4 to 5 days by light microscopic analysis; type: functional, organism-based; conditions: Human immunodeficiency virus 2, ROD, CCRF-CEM
[6] = test system: Human immunodeficiency virus 2; assay: Antiviral activity against HIV-2 ROD infected in thymidine kinase-deficient human CEM cells assessed as inhibition of virus-induced cytopathic effect incubated for 4 to 5 days by light microscopic analysis; type: functional, organism-based; conditions: Human immunodeficiency virus 2, ROD, CCRF-CEM
[7] = Chemical stability of the compound in phosphate buffer saline assessed as half life at pH 7.3 by HPLC analysis; type: physicochemical; conditions: phosphate buffered saline
[8] = Prodrug conversion in pH 7.3 phosphate buffer assessed as metabolite formation by measuring half life in presence of pig liver esterase by HPLC analysis; type: ADME; conditions: isolated protein
[9] = test system: Human immunodeficiency virus 1; assay: Antiviral activity against HIV-1 HE infected in wild-type human CEM/0 cells assessed as inhibition of virus-induced cytopathic effect incubated for 4 to 5 days by light microscopic analysis; type: functional, organism-based; conditions: Human immunodeficiency virus 1, HE, CCRF-CEM
[10] = Prodrug conversion in human CEM/0 cell extract assessed as ((2S,5R)-5-(5-methyl-2,4-dioxo-3,4-dihydropyrimidin-1(2H)-yl)-2,5-dihydrofuran-2-yl)methyl tri-hydrogen diphosphate formation by HPLC analysis; type: ADME; conditions: ccrf-cem
[11] = Prodrug conversion in pH 7.3 phosphate buffer assessed as ((2S,5R)-5-(5-methyl-2,4-dioxo-3,4-dihydropyrimidin-1(2H)-yl)-2,5-dihydrofuran-2-yl)methyl tri-hydrogen diphosphate formation by measuring half life in presence of pig liver esterase by HPLC analysis; type: ADME
[12] = biological target: T1, DNA polymerase subunit gamma-1 (Homo sapiens) (UniProt P54098); assay: Substrate activity at human DNA polymerase gamma measured after 4 hrs by electrophoresis based primer extension assay
T1 sequence (whole entry): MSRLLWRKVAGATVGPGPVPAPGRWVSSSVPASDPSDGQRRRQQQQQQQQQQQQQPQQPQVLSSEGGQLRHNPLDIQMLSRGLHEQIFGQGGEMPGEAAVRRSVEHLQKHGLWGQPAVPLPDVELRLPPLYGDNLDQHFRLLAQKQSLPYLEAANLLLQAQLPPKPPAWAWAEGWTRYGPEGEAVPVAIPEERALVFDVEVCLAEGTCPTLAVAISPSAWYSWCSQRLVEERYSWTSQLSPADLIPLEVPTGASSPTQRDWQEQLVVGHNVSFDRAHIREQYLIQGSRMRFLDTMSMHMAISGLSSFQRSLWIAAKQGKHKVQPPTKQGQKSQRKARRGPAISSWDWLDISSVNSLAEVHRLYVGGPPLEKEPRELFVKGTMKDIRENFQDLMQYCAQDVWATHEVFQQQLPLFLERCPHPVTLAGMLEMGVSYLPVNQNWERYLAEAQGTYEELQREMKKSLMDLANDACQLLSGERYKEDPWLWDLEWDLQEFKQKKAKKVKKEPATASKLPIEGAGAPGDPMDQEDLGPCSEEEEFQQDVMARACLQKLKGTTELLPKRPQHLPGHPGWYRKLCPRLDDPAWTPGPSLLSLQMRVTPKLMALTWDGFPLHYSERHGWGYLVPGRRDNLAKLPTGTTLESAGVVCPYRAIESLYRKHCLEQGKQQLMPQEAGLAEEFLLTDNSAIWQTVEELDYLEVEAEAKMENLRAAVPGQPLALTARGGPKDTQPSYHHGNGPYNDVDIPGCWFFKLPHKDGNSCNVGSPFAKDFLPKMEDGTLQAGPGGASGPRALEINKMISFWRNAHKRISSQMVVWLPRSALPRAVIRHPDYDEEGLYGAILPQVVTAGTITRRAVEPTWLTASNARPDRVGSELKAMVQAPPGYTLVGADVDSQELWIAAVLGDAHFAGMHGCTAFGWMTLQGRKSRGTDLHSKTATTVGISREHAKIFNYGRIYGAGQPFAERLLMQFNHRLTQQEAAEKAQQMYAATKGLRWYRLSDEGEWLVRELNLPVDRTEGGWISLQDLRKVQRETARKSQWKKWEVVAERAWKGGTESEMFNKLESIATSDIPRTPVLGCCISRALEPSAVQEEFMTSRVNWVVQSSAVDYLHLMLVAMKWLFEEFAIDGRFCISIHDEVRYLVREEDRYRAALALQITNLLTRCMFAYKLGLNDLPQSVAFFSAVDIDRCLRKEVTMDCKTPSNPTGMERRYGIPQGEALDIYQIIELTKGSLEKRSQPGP

[13] = biological target: DNA polymerase beta (Homo sapiens) (UniProt P06746); assay: Substrate activity at human DNA polymerase beta measured after 4 hrs by electrophoresis based primer extension assay
[14] = biological target: T2, DNA polymerase alpha catalytic subunit (Homo sapiens) (UniProt P09884); assay: Substrate activity at human DNA polymerase alpha measured after 4 hrs by electrophoresis based primer extension assay
T2 sequence (whole entry): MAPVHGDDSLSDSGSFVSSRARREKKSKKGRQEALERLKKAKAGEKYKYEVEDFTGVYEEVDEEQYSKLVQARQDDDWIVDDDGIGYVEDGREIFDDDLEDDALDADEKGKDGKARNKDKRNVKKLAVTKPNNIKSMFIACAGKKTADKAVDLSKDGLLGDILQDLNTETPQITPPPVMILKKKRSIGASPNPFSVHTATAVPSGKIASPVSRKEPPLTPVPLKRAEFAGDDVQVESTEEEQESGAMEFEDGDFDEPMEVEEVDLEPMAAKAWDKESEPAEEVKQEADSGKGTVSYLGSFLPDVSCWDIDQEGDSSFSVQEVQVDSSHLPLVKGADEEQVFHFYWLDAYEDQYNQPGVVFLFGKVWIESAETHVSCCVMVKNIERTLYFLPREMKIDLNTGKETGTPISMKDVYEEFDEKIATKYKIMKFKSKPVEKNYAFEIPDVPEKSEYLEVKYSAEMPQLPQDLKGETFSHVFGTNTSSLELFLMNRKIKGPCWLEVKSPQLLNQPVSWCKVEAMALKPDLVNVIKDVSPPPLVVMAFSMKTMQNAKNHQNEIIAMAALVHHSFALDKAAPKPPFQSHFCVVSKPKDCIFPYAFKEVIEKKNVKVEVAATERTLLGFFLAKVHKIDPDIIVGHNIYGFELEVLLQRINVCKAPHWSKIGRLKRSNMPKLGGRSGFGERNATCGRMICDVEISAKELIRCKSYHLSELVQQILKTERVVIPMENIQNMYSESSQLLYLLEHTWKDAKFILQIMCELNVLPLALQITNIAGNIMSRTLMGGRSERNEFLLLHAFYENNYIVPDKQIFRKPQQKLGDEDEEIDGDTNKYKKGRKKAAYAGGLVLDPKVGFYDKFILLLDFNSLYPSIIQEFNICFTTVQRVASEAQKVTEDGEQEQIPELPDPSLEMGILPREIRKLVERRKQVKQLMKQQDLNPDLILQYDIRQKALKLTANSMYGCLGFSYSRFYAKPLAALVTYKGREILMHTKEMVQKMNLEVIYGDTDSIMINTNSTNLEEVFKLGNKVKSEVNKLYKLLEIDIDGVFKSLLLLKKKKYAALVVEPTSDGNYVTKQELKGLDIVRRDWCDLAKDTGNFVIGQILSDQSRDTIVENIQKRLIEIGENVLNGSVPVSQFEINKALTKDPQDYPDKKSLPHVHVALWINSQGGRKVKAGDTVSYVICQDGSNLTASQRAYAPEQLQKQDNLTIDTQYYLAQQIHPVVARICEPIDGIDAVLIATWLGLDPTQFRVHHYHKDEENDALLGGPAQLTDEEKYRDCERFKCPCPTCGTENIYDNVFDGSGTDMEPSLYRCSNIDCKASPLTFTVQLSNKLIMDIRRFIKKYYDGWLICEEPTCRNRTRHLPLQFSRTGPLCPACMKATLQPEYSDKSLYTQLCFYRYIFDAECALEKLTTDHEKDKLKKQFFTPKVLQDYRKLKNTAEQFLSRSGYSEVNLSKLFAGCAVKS

[15] = test system: Human immunodeficiency virus; assay: Substrate activity at HIV reverse transcriptase measured after 4 hrs by electrophoresis based primer extension assay

Row | SMILES | t1/2 [2] [h] | Retention_time [4] [min] | EC50 [5] [nM] | EC50 [6] [nM] | half-life [7] [days] | EC50 [9] [nM] | Drug metabolism [2] | Drug metabolism [8] | Drug metabolism [10] | t1/2 [11] [h] | Activity [12] | Activity [13] | Activity [14] | Activity [15] | CC50 [1] [nM] | selectivity ratio [3] | t1/2 [8] [h]
1 | CCCCCCCCCCCCP(=O)(OCc1ccc(OC(=O)CCCCCCCCCCC)cc1)OP(=O)(O)OC[C@@H]1C=C[C@H](n2cc(C)c(=O)[nH]c2=O)O1.N (stereo partly drawn) | 3 | 20.6 | 60 | 10 | > 83.3 | 130 | – | – | – | – | – | – | – | – | 41100 | 4110 | 0.27
2 | CCCCOP(=O)(O)OP(=O)(O)OC[C@@H]1C=C[C@H](n2cc(C)c(=O)[nH]c2=O)O1.N.N | > 30 | 9.4 | 420 | 43200 | > 125 | 720 | – | – | Metabolite_Notdetected | > 150 | inactive | inactive | inactive | – | > 100000 | > 2 | –
3 | Cc1cn([C@H]2C=C[C@@H](COP(=O)(O)OP(=O)(O)O)O2)c(=O)[nH]c1=O | – | – | – | – | – | – | – | – | – | – | – | – | – | Active | – | – | –
4 | Cc1cn([C@H]2C=C[C@@H](CO)O2)c(=O)[nH]c1=O [STAVUDINE] | – | – | – | > 50000 | – | – | – | – | – | – | – | – | – | – | > 50000 | > 1 | –
5 | CCCCCCCCCCCCP(=O)(O)OP(=O)(O)OC[C@@H]1C=C[C@H](n2cc(C)c(=O)[nH]c2=O)O1.N.N | > 30 | 12.3 | 200 | 12600 | > 83.3 | 870 | – | – | Metabolite_Notdetected | > 150 | – | – | – | – | > 100000 | > 8 | –

Further lines, with some results ahead:

Row | t1/2 [2] [h] | Retention_time [4] [min] | EC50 [5] [nM] | EC50 [6] [nM] | half-life [7] [days] | EC50 [9] [nM] | Drug metabolism [2] | Drug metabolism [8] | Drug metabolism [10] | t1/2 [11] [h] | Activity [12] | Activity [13] | Activity [14] | Activity [15] | SMILES | CC50 [1] [nM] | selectivity ratio [3] | t1/2 [8] [h]
6 | > 7 | 20.3 | 36 | 16 | 16.9 | 59 | – | – | – | – | – | – | – | – | CCCCCCCCCCCCCCCCCCOP(=O)(OCc1ccc(OC(=O)CCCC)cc1)OP(=O)(O)OC[C@@H]1C=C[C@H](n2cc(C)c(=O)[nH]c2=O)O1.N (stereo partly drawn) | 50600 | 3170 | 0.18
7 | – | 11.3 | 410 | 8950 | 3.5 | 430 | Metabolite_Notdetected | Metabolite_Notdetected | – | – | – | – | – | – | CCCCC(=O)Oc1ccc(COP(=O)(OC)OP(=O)(O)OC[C@@H]2C=C[C@H](n3cc(C)c(=O)[nH]c3=O)O2)cc1.N (stereo partly drawn) | > 100000 | > 11 | –
8 | – | 16.6 | 53 | 750 | 11.6 | 230 | Metabolite_Notdetected | Metabolite_Notdetected | – | – | – | – | – | – | CCCCCCCCCCCC(=O)Oc1ccc(COP(=O)(OCCCC)OP(=O)(O)OC[C@@H]2C=C[C@H](n3cc(C)c(=O)[nH]c3=O)O2)cc1.N (stereo partly drawn) | 83100 | 111 | –
9 | > 30 | 12.6 | 190 | 11000 | > 125 | 560 | – | – | Metabolite_Notdetected | > 150 | inactive | inactive | inactive | – | CCCCCCCCCCCCOP(=O)(O)OP(=O)(O)OC[C@@H]1C=C[C@H](n2cc(C)c(=O)[nH]c2=O)O1.N.N | > 100000 | > 9 | –
10 | – | 8.9 | 180 | 40400 | > 125 | 520 | Metabolite_Notdetected | – | Metabolite_Notdetected | > 150 | inactive | inactive | inactive | – | COP(=O)(O)OP(=O)(O)OC[C@@H]1C=C[C@H](n2cc(C)c(=O)[nH]c2=O)O1.N.N | > 100000 | > 2 | –
11 | > 13 | 15.1 | 68 | 1 | > 125 | 330 | – | – | Metabolite_Notdetected | > 150 | inactive | inactive | inactive | inactive | CCCCCCCCCCCCCCCCCCOP(=O)(O)OP(=O)(O)OC[C@@H]1C=C[C@H](n2cc(C)c(=O)[nH]c2=O)O1.N.N | > 100000 | > 62500 | –

From ChEMBL document CHEMBL5365447, “Pronucleotides of 2',3'-Dideoxy-2',3'-Didehydrothymidine as Potent Anti-HIV Compounds” (J Med Chem, 2023)
